Measured values: patent US10526585B2 (priority 2015, dated 2020)

Type: biochemical
Settings: pH 7.5

| Compound | DON [ppm] |
| --- | --- |
| tryptophan tryptophylquinone [TTQ] | 2.32 |
| [Zn+2] [Zn^2+] | 2.46 |
| [Fe+2] [Fe^2+] | 2.17 |
| [Ca+2] [Ca^2+] | 1.98 |
| [Mg+2] [Mg^2+] | 1.90 |
| CN(C)c1ccc2nc3ccc(=[N+](C)C)cc-3sc2c1 [methylene blue] | 6.88 |
| topaquinone [TPQ] | 2.41 |
| COC1=C(OC)C(=O)C(CC=C(C)C)=C(C)C1=O [coenzyme Q1] | 8.58 |
| [Cu+2] [Cu^2+] | 2.61 |
| [Mn+2] [Mn^2+] | 2.57 |
| COS(=O)(=O)[O-].C[n+]1c2ccccc2nc2ccccc21 [PMS, phenazine methosulphate] | 1.95 |
| O=C(O)c1cc(C(=O)O)c2c(n1)C(=O)C(=O)c1cc(C(=O)O)[nH]c1-2 [PCC, pyrroloquinoline quinone] | 1.94 |
| N[C@@H](CCCCNC1=CC(=O)C(=O)C=C1C[C@H](N)C(=O)O)C(=O)O [LTQ, lysine tyrosylquinone] | 2.04 |
